Reference: patent publication EP4663242A1, “TARGETING THE ENERGY COUPLING FACTOR (ECF) TRANSPORTERS AS NOVEL ANTIMICROBIAL TARGET” (Helmholtz-Zentrum für Infektionsforschung GmbH, priority 2024, dated 2025)
Values after ≈ are worked out from the molar mass of the structure shown. Values joined by “and” are separate entries in the source; they are usually repeats but may differ in a detail not shown here. Equal values may be shown once. Read-outs that look alike come from different tables or passages of the source.

Assays:
[1] = test system: ECF-FoIT2; assay: Uptake assay into proteoliposome (radiolabelled folate uptake); type: biochemical, L. delbrueckii; conditions: folate uptake into proteoliposomes, n = 2, mean ± SD
Method: In summary, both 1 and 22 are capable of inhibiting the ECF-FoIT2 in a proteoliposome-based uptake assay which further complements the results obtained from the whole-cell uptake assay. Table 4. Relative inhibition of ECF-FoIT2 in proteoliposome uptake assay
4.3.2. Uptake assay into proteoliposome
This assay was performed based on the protocol reported by Swier et al. with minor modifications.^18

[2] = test system: E. faecium DSM-17050; assay: MIC screening against Gram-positive pathogens; type: cell-based; conditions: Enterococcus faecium
Method: (§1) 4.3.3. Screening against clinically relevant Gram-positive pathogens.
(§2) All microorganisms were obtained from the German Collection of Microorganisms and Cell Cultures (DSMZ) and were handled according to standard procedures. Bacteria were inoculated into tryptic soy broth (TSB) to obtain a final inoculum of […] colony-forming units (CFU)/mL. The tested compounds were prepared as DMSO stocks (20 mM). Serial dilutions of derivatives in the growth medium (0.06 to 128 µM) were prepared in sterile 96-well plates, and the bacterial suspensions were added. Growth inhibition was assessed after static incubation at 37 °C for 24 h. S. pneumoniae was grown at 5% CO2. MIC values are defined as the lowest compound concentration where no visible growth is observed.

[3] = test system: Enterococcus faecalis DSM-20477; assay: MIC screening against Gram-positive pathogens; type: cell-based
Method: as §1, §2

[4] = test system: S. pneumoniae DSM-11865; assay: MIC screening against Gram-positive pathogens; type: cell-based; conditions: Streptococcus pneumoniae
Method: as §1, §2

[5] = test system: E. faecium DSM-20478; assay: MIC screening against Gram-positive pathogens; type: cell-based; conditions: Enterococcus faecium
Method: as §1, §2

[6] = test system: Streptococcus pneumoniae DSM-20566; assay: MIC screening against Gram-positive pathogens; type: cell-based; conditions: 37 °C, 24 h
Method: as §1, §2

Row | MIC ([2]; DSM17050, E. faecium DSM-17050, vancomycin-resistant strain, TSB, 37 °C, 24 h, read-out: MIC) | MIC ([6]; DSM20566, TSB, 5% CO2, read-out: MIC) | MIC ([6]; TSB, 5% CO2) | MIC ([3]; DSM20477, Enterococcus faecalis DSM-20477, TSB, 37 °C, 24 h, read-out: MIC) | MIC ([4]; DSM11865, S. pneumoniae DSM-11865, penicillin-resistant strain, TSB, 37 °C, 24 h, 5% CO2, read-out: MIC) | MIC ([5]; DSM20478, E. faecium DSM-20478, TSB, 37 °C, 24 h, read-out: MIC) | Compound | Relative inhibition (%) at 150 µM [1] | MIC ([2]; DSM17050, 24 h) | MIC ([3]; Enterococcus faecalis, DSM20477, 24 h) | MIC ([4]; DSM11865, 24 h) | MIC ([5]; DSM20478, 24 h)
1 |  |  |  |  |  |  | O=C(O)CCc1nc(-c2ccc(Cl)cc2)c(-c2ccccc2)o1 [Compound 1, 3-(4-(4-Chlorophenyl)-5-phenyloxazol-2-yl)propanoic acid] | 44% and 44 ± 2% | > 128 µM | > 128 µM | > 128 µM | > 128 µM
2 | 2 µM (≈ 0.957 µg/mL) | 0.5 to 1 µM (≈ 0.239 to 0.478 µg/mL) | 0.5 to 1 µM | 4 µM (≈ 1.91 µg/mL) | 0.5 to 1 µM (≈ 0.239 to 0.478 µg/mL) | 4 µM (≈ 1.91 µg/mL) | O=C(O)c1cccc(-c2nc(-c3ccc(Cl)c(Cl)c3)c(-c3cccc(C(F)(F)F)c3)o2)c1 [Compound 22, 3-(4-(3,4-Dichlorophenyl)-5-(3-(trifluoromethyl)phenyl)oxazol-2-yl)benzoic acid] | 95% and 95 ± 1% |  |  |  | 
